# In ChEMBL document CHEMBL1201862, “PubChem BioAssay data set” (2004):
# Active and inactive are the calls of the source.
# Tests used:
# [1] = target: T1, Orexin/Hypocretin receptor type 1 (Homo sapiens, UniProt O43613); assay: Homogeneous Time Resolved Fluorescence (HTRF)-based cell-based high throughput dose response assay for antagonists of the orexin 1 receptor (OX1R; HCRTR1). [Related pubchem assays (depositor defined):AID434989, AID435008, AID463079, AID485270, AID492963, AID492964, AID492965, AID493232, AID504717, AID504718]; type: functional
# T1 sequence (O43613 whole entry): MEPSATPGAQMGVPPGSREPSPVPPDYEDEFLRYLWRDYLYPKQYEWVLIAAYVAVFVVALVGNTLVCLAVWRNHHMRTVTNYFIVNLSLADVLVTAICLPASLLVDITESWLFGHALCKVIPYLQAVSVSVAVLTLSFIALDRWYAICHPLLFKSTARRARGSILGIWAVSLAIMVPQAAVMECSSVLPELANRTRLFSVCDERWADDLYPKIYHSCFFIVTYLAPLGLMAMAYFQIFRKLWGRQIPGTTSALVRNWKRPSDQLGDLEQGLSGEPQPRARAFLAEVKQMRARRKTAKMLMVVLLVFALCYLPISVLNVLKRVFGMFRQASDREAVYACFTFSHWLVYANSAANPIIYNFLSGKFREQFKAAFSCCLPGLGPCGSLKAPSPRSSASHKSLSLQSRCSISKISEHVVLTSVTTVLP
# [2] = (§1) Counterscreen for antagonists of the orexin 1 receptor (OX1R; HCRTR1): Fluorescence-based cell-based high throughput dose response assay to identify antagonists of the parental CHO cell line. [Related pubchem assays (depositor defined):AID434989, AID435008, AID463079, AID485270, AID492963, AID492964, AID492965, AID493232, AID504699, AID504701]; type: functional
# [3] = target: T2, Orexin receptor type 2 (Homo sapiens, UniProt O43614); assay: Counterscreen assay for antagonists of the orexin 1 receptor (OX1R; HCRTR1): Homogeneous Time Resolved Fluorescence (HTRF)-based cell-based dose response assay for antagonists of the orexin 2 receptor (OX2R; HCRTR2), run by assay provider.; type: functional
# T2 sequence (O43614 whole entry): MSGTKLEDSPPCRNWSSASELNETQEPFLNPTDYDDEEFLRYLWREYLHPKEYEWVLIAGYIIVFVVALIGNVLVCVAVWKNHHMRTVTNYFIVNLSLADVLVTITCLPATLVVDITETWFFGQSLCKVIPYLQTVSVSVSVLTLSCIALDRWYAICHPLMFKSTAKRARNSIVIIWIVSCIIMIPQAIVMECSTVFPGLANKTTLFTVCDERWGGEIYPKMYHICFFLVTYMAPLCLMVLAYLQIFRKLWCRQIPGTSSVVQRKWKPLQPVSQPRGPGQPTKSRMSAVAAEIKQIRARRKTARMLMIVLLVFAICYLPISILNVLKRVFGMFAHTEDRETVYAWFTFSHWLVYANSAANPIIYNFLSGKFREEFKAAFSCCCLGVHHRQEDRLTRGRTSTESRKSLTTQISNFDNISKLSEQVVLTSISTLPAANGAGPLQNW
# [4] = target: T1, Orexin/Hypocretin receptor type 1; assay: Fluorescence-based cell-based high throughput dose response assay for antagonists of the orexin 1 receptor (OX1R; HCRTR1). [Related pubchem assays (depositor defined):AID434989, AID435008, AID463079, AID485270, AID492963, AID492964, AID492965, AID493232, AID504717, AID504718]; type: functional
# [5] = target: T2, Orexin receptor type 2; assay: Counterscreen assay for antagonists of the orexin 1 receptor (OX1R; HCRTR1): Fluorescence-based cell-based dose response assay for antagonists of the orexin 2 receptor (OX2R; HCRTR2), run by assay provider.; type: functional
# [6] = test system: CHO-K1; assay: as §1, with “Homogeneous time resolved fluorescence (HTRF)-based” for “Fluorescence-based”, “cell-based” for “cell-based high throughput”, “CHO-K1” for “CHO”; type: functional; details: Cricetulus griseus;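 note: potency for inhibition of ATP-stimulated IP1 production as antagonists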
# [7] = test system: HeLa; assay: HeLa cell cytotoxicity, dose response, cytotoxicity control for MITF activator project, CellTiter-Glo luminescence, cherry-pick samples (AID 540259); type: functional, cell-based; details: Homo sapiens
# [8] = Luminescence-based cell-based high throughput dose response assay to identify activators of the DAF-12 from the parasite S. stercoralis (ssDAF-12).; type: functional
# [9] = test system: H9c2; assay: cells; type: functional, cell-based; details: Rattus norvegicus, H9c2, Myocardium;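 note: confirmatory concentration-response retest of ultra-high-throughput screening hits for modulation of myocardial damage; cell death induced by hydrogen peroxide oxidative stress; compound pretreatment for 60 min then peroxide exposure for 2 h; potency is for protecting the cells against peroxide damage rather than for killing them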
# [10] = target: Glucose-6-phosphate 1-dehydrogenase (Homo sapiens, UniProt P11413); assay: human G6PD enzyme inhibitors, dose response, selectivity assay for P. falciparum G6PD inhibitor project, biochemical, fluorescence (AID 504792); type: functional
# Chain of Glucose-6-phosphate 1-dehydrogenase (P11413 whole entry): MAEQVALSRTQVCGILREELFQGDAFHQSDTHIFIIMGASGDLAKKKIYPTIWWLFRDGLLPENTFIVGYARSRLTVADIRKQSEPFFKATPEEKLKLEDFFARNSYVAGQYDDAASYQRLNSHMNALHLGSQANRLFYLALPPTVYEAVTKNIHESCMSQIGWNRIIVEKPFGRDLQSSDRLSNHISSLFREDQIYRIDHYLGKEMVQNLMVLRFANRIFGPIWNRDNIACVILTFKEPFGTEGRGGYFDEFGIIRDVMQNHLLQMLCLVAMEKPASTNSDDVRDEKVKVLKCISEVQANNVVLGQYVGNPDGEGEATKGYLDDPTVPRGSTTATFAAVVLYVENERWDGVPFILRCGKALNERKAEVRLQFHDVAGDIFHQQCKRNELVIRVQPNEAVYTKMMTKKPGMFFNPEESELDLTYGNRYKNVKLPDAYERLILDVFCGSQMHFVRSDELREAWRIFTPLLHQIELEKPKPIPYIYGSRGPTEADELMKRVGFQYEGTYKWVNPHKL
# [11] = target: T3, Mitochondrial peptide methionine sulfoxide reductase (Bos taurus, UniProt P54149); type: functional;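 note: absorbance read-out, biochemical high-throughput dose-response screen for MsrA inhibitors, confirmatory; recombinant bovine MsrA coupled to E. coli TrxB with NADPH and selenocystamine; potency is for inhibitors of MsrA activity on DMSO substrate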
# T3 sequence (P54149 whole entry): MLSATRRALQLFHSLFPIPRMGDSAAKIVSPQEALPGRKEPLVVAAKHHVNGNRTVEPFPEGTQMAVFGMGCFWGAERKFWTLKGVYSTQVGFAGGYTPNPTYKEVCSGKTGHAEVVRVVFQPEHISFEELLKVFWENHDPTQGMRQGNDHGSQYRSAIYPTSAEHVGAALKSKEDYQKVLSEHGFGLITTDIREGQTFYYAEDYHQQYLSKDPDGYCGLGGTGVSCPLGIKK
# [12] = target: T4, Heat shock factor protein 1 (Mus musculus, UniProt P38532); assay: HSF1 potentiators in luciferase reporter cells, confirmation, cell-based, NIH3T3, luminescence, dose retest (AID 435004); type: functional;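 note: stress induced by proteasome inhibitor MG132 added 30 min after compound; luciferase reporter driven by HSF1 response element in NIH3T3 cells; actives raise luminescence as potentiators of the MG132 stress response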
# T4 sequence (P38532 whole entry): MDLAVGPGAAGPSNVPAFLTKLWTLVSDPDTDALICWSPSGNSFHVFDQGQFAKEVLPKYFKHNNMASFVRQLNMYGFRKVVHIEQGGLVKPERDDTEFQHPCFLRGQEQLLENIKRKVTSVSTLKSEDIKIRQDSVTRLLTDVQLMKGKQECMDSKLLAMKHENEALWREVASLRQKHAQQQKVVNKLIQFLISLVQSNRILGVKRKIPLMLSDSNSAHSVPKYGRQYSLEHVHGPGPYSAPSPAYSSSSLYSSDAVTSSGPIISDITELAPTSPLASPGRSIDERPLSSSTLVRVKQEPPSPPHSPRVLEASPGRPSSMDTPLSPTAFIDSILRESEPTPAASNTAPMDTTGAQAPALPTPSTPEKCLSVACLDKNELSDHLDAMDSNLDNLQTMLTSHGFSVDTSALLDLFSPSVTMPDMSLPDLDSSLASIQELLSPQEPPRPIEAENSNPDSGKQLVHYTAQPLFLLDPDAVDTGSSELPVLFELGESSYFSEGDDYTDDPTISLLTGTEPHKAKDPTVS
# [13] = test system: Vero; assay: Vero cell cytotoxicity, cytotoxicity control for flavivirus capping enzyme inhibitors (AID 588742); type: functional; details: Chlorocebus sabaeus
compound,measurement,setting,value
COc1cc(OC)c(-c2nc3ccccc3s2)cc1OC,IC50,[1],0.46 µM (active)
same,IC50,[2],> 49.7 µM (inactive)
same,IC50,[3],> 50 µM (inactive)
same,IC50,[4],5.47 µM (active)
same,IC50,[5],> 88.8 µM (inactive)
same,IC50,[6],> 66.2 µM (inactive)
CC(C)(C)C(=O)Nc1nc2cc3c(cc2s1)OCO3,AC50,[7],51.9 µM (active)
N#CC1=C(N)Oc2c(O)cc3ccccc3c2C1c1ccsc1 (stereo not drawn),IC50,[8],> 67.5 µM (inactive)
same,IC50,[9],> 79 µM (inactive)
same,IC50,[10],> 80 µM (inactive)
same,IC50,[11],155 µM (inactive)
same,EC50,[12],41.5 µM (active)
same,CC50,[13],> 40 µM (active)
